Assay results reported in article PMC4648258 (ACS infectious diseases, 2015).
Converted amounts (≈) assume the structure as drawn.

Key:
[1] = system: M. tuberculosis rINH (ATCC 35822); experiment: microbe, parasite or virus in culture; type: cell-based, Mycobacterium tuberculosis
[2] = system: M. tuberculosis rSM (ATCC 35820); experiment: microbe, parasite or virus in culture; type: cell-based, Mycobacterium tuberculosis
[3] = system: M. tuberculosis rKM (ATCC 35827); experiment: microbe, parasite or virus in culture; type: cell-based, Mycobacterium tuberculosis
[4] = system: M. tuberculosis rCS (cycloserine; ATCC35826); experiment: microbe, parasite or virus in culture; type: cell-based; settings: Mycobacterium tuberculosis
[5] = system: M. tuberculosis rRMP (ATCC 35838); experiment: microbe, parasite or virus in culture; type: cell-based, Mycobacterium tuberculosis
[6] = system: M. tuberculosis thyA overexpression mutant; type: cell-based
[7] = system: M. tuberculosis thyX overexpression mutant; type: cell-based
[8] = Mycobacterium tuberculosis, ATCC35822
[9] = Mycobacterium tuberculosis, ATCC35820
[10] = Mycobacterium tuberculosis, ATCC35827
[11] = Mycobacterium tuberculosis, ATCC35838

| Compound | MIC [1, 8] | MIC [2, 9] | MIC [3, 10] | MIC [4] | MIC [5, 11] | MIC ([1]; MABA, rINH strain) | MIC ([2]; MABA, rSM strain) | MIC ([3]; MABA, rKM strain) | MIC differential versus H37Rv wild-type [6] | MIC differential versus H37Rv wild-type [7] | MIC ([5]; MABA, rRMP strain) |
| --- | --- | --- | --- | --- | --- | --- | --- | --- | --- | --- | --- |
| [H]/N=C(/N)N[C@H]1[C@H](O)[C@@H](O)[C@H](O[C@@H]2O[C@@H](C)[C@](O)(C=O)[C@H]2O[C@@H]2O[C@@H](CO)[C@H](O)[C@@H](O)[C@@H]2NC)[C@@H](N/C(N)=N\[H])[C@@H]1O [SM, streptomycin] | 0.46 µg/mL (≈ 0.791 µM) | > 2 µg/mL | 1.2 µg/mL (≈ 2.06 µM) |  |  |  |  |  |  |  |  |
| CO[C@H]1/C=C/O[C@@]2(C)Oc3c(C)c(O)c4c(O)c(c(/C=N/N5CCN(C)CC5)c(O)c4c3C2=O)NC(=O)/C(C)=C\C=C\[C@H](C)[C@H](O)[C@@H](C)[C@@H](O)[C@@H](C)[C@H](OC(C)=O)[C@@H]1C [RMP, rifampicin] | 0.01 µg/mL (≈ 0.0122 µM) | 0.03 µg/mL (≈ 0.0365 µM) | < 0.01 µg/mL | < 0.01 µg/mL | > 2 µg/mL |  |  |  |  |  |  |
| NC[C@H]1O[C@H](O[C@H]2[C@H](O)[C@@H](O[C@H]3O[C@H](CO)[C@@H](O)[C@H](N)[C@H]3O)[C@H](N)C[C@@H]2N)[C@H](O)[C@@H](O)[C@@H]1O [KM, kanamycin] |  |  |  |  |  | 0.95 µg/mL (≈ 1.96 µM) | 0.95 µg/mL (≈ 1.96 µM) | >2.00 µg/mL |  |  |  |
| O=[N+]([O-])c1cn2c(n1)OC[C@@H](OCc1ccc(OC(F)(F)F)cc1)C2 [PA824] | 0.03 µg/mL (≈ 0.0835 µM) | 0.11 µg/mL (≈ 0.306 µM) | 0.19 µg/mL (≈ 0.529 µM) |  | 0.03 µg/mL (≈ 0.0835 µM) |  |  |  |  |  |  |
| NNC(=O)c1ccncc1 [INH, isoniazid] | > 2 µg/mL | 0.02 µg/mL (≈ 0.146 µM) | 0.03 µg/mL (≈ 0.219 µM) | 0.01 µg/mL (≈ 0.0729 µM) | 0.02 µg/mL (≈ 0.146 µM) |  |  |  |  |  |  |
| CCCc1c2c([nH]c(=O)c1C)C(=O)c1[nH]c(=O)c(C)c(CCC)c1C2=O [Compound 3, diazaquinomycin A] |  |  |  |  |  | 0.13 µg/mL (≈ 0.367 µM) | 0.17 µg/mL (≈ 0.48 µM) | 0.06 µg/mL (≈ 0.169 µM) | did not observe a significant differential in the MIC | did not observe a significant differential in the MIC | 0.27 µg/mL (≈ 0.762 µM) |
